This is an account of results in ChEMBL document CHEMBL1201862, “PubChem BioAssay data set” (2004).

Assay [1] deals with A-375. As to the kind of experiment: A375 melanoma cell viability reduction, dose response, counter-screen for MITF modulator project, cherry-pick samples, set 2 (AID 540335). The class given is functional, cell-based. The settings on record: Homo sapiens. For orientation: The purpose of a counterscreen is to sort out artefacts and off-target activity.
Assay [2] has as its target T1, Microphthalmia-associated transcription factor (Homo sapiens, UniProt O75030).
T1 sequence (O75030 whole entry): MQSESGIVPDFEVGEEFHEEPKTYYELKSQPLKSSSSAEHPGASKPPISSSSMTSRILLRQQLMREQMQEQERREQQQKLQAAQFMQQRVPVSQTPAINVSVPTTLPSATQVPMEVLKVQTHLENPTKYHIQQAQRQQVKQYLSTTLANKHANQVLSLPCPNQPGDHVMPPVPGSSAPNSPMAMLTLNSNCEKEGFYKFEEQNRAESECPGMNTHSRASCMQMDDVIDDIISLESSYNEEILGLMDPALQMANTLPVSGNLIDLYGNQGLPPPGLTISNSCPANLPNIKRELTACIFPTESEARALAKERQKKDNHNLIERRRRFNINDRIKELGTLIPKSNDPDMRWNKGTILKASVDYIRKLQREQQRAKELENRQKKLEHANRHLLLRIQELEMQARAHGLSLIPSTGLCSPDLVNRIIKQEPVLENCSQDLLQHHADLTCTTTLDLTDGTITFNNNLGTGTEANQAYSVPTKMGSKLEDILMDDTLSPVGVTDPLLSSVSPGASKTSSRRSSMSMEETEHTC
Kind of assay: TRPM1 promoter luciferase signal decrease, dose response, MITF inhibitor project, cell-based, SK-MEL-5, cherry-picked, set 3 (AID 493073).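 Further: SK-MEL-5 melanoma cells with luciferase driven by the MITF target TRPM1 promoter.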 The class given is functional.

Assay [3] deals with T2, DNA repair protein RAD52 homolog (Homo sapiens, UniProt P43351).
T2 sequence (P43351 whole entry): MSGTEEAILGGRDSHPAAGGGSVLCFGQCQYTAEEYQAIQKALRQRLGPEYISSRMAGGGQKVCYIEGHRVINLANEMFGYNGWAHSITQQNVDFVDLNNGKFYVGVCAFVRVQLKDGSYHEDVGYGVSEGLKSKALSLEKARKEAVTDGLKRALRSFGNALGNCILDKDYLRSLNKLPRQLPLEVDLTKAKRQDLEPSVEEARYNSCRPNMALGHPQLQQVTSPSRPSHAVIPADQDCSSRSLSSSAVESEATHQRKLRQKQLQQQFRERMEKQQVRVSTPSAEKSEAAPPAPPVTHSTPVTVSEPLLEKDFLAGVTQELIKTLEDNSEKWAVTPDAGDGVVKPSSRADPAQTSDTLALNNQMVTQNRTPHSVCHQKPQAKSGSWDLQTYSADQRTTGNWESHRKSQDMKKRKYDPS
In kind it is functional, biochemical.

A short description of assay [4]: Luminescence Cell-Based Dose Retest to Confirm Inhibitors of Cancer Stem Cells. [Related pubchem assays (depositor defined):AID2717, AID2721]. The conditions noted are these: Homo sapiens. The class given is functional, Homo sapiens.
Assay [5] addresses Nonstructural protein 1 (Influenza A virus, UniProt Q194T2). In kind it is functional, Influenza A virus (A/California/07/2009(H1N1)).
The nature of assay [6]: HepG2 cell cytotoxicity, dose response, cytotoxicity control for non-replicating M. tuberculosis project (AID 489018). The class given is functional. The settings on record: Mycobacterium tuberculosis.
Assay [7] in a line: Vero E6 cell cytotoxicity, dose response, cytotoxicity control for non-replicating M. tuberculosis project, secondary assay (AID 492998). The class given is functional, VeroE6. The conditions noted are these: Vero C1008.
Assay [8] can be described thus: microbe, parasite or virus in culture. The settings on record: Mycobacterium tuberculosis. The class given is functional.
The nature of assay [9]: THP-1 cell cytotoxicity, dose response, cytotoxicity control for non-replicating M. tuberculosis project (AID 489025). In kind it is functional.
The nature of assay [10]: cells. In kind it is functional.
Assay [11] can be described thus: growth suppression of beta-catenin-knockout colon cells, dose response, cell-based, HCT116, human colon tumor (AID 1045).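 Further: HCT116 colon tumor cells with beta catenin knocked out; cells exposed to compound for 60 hours.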 In kind it is functional.
A short description of assay [12]: growth suppression of PTEN-null colon cells, dose response, cell-based, HCT116 PTEN knockout (AID 1047).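 Further: HCT116 colon tumor cells with PTEN knocked out; cells exposed to compound for 60 hours before readout; potency for loss of cell viability measured by luminescence.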 In kind it is functional.
Assay [13] concerns the target T3, Streptokinase A (Streptococcus pyogenes serotype M1, UniProt P10520).
T3 sequence (P10520 whole entry): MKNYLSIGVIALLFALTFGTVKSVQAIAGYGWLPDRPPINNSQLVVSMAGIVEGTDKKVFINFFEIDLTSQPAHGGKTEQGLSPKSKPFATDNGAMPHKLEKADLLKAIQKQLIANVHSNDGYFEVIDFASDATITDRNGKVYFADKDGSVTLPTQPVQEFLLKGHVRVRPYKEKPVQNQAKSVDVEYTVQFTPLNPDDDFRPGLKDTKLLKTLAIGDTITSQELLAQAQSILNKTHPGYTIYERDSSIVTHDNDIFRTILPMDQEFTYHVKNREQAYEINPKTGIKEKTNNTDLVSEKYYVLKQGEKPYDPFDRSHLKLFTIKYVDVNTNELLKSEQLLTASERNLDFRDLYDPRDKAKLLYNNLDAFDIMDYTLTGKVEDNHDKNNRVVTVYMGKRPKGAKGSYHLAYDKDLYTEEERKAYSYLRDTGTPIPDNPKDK
As to the kind of experiment: S. pyogenes streptokinase expression inhibitors, potency, dose response, plasminogen activation absorbance, OD405 (AID 1914).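 Further: secreted streptokinase activity via plasminogen activation per viability signal from cell pellet.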 The class given is functional, Streptococcus pyogenes M1 GAS.

For assay [14], the system named is Streptococcus sp. 'group A'. As to the kind of experiment: growth inhibition of control SK(-) GAS strain, dose response, counter-screen for streptokinase expression inhibitor project, luminescence, kanamycin, BacTiterGlo, confirmation (AID 1900). In kind it is functional, organism-based.
Assay [15] has as its system Streptococcus. As to the kind of experiment: Group A Streptococcus viability loss, dose response, counter-screen for streptokinase expression inhibitor project, luminescence, BacTiterGlo (AID 1915).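 Further: potency for reduction of bacterial viability or growth.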 The class given is functional, organism-based.
Assay [16] addresses Dual specificity tyrosine-phosphorylation-regulated kinase 1A (Rattus norvegicus, UniProt Q63470). The class given is biochemical, Homo sapiens.
Assay [17] concerns the target Phospholipase D1 (Homo sapiens, UniProt Q13393). As to the kind of experiment: PLD1 inhibitor potency in cells, dose response (AID 602151).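 Further: cellular PLD1 assay in Calu-1 cells stimulated with PMA.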 In kind it is functional.
The target in assay [18] is Phospholipase D2 (Homo sapiens, UniProt O14939). Kind of assay: PLD2 inhibitor potency in cells, dose response (AID 602147).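 Further: cellular assay in HEK293 cells overexpressing GFP-tagged PLD2.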 In kind it is functional.
Assay [19] deals with T4, Sentrin-specific protease 1 (Homo sapiens, UniProt Q9P0U3). As to the kind of experiment: Dose response confirmation of small molecule inhibitors of the catalytic domain of the SUMO protease, SENP1 in a FRET assay. The class given is functional. The settings on record: read-out: IC50_Mean.
The target in assay [20] is T5, Endoribonuclease toxin MazF (Escherichia coli K-12, UniProt P0AE70). As to the kind of experiment: fluorescent RNA oligo signal without MazF, dose response, counter-screen for MazEF activator project, biochemical, fluorescence, single-stranded RNase substrate (AID 588502). In kind it is functional.
Assay [21] deals with T4, Sentrin-specific protease 1. Kind of assay: potency of human SENP1 inhibitors, dose response, biochemical, kinetic FRET (AID 651697). In kind it is functional. The conditions noted are these: read-out: IC50_Mean.
The target in assay [22] is T5, Endoribonuclease toxin MazF. As to the kind of experiment: MazF toxin RNase activators, dose response, biochemical, fluorescence, single-stranded RNA substrate, uHTS hits (AID 588481). The class given is functional.
For assay [23], the system named is HeLa. Kind of assay: HeLa cell cytotoxicity, dose response, cytotoxicity control for MITF activator project, CellTiter-Glo luminescence, cherry-pick samples (AID 540259). In kind it is functional, cell-based. The conditions noted are these: Homo sapiens. (ATP-based viability assays read luminescence as a measure of living cells.)
For assay [24], the target named is Voltage-gated inwardly rectifying potassium channel KCNH2 (Homo sapiens, UniProt Q12809). The settings on record: Potency.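 Further: confirmatory quantitative high-throughput screen measuring inhibition of hERG channel activity.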
For assay [25], the target named is Genome polyprotein (dengue virus type 2, UniProt P29990). Kind of assay: Dengue-2 NS5 methyltransferase inhibitors, primary screen, biochemical, confirmation dose response (AID 588689). The class given is functional.
Assay [26] has as its target Intestinal-type alkaline phosphatase (Homo sapiens, UniProt P09923). As to the kind of experiment: inhibition of human intestinal alkaline phosphatase – biochemical, dose response (AID 488876). The class given is functional.
In assay [27] the target is T6, RNA-binding protein pos-1 (Caenorhabditis elegans, UniProt G5EF15).
T6 sequence (G5EF15 whole entry): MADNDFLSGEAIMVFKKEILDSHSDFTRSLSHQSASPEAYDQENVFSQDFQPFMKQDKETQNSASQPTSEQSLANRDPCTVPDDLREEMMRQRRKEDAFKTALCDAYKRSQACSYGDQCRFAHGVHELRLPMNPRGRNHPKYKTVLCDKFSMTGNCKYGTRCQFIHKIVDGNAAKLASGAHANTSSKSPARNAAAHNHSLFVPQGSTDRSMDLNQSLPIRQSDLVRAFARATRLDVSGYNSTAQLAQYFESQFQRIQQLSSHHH
As to the kind of experiment: inhibitors of POS-1/mex-3 RNA binding, dose response, biochemical, fluorescence polarization (AID 1964).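 Further: purified POS-1 fused to maltose binding protein made in E. coli; potency of compounds blocking POS-1 binding to fluorescent RNA.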

In assay [28] the target is Envelope glycoprotein gp160 (Human immunodeficiency virus 1, UniProt Q6QLK5). Kind of assay: inhibitors of HIV fusion peptide binding, primary screen, biochemical, uHTS, fluorescence dequenching (AID 1986).
Assay [29] addresses T7, Alkaline phosphatase, tissue-nonspecific isozyme (Homo sapiens, UniProt P05186).
T7 sequence (P05186 whole entry): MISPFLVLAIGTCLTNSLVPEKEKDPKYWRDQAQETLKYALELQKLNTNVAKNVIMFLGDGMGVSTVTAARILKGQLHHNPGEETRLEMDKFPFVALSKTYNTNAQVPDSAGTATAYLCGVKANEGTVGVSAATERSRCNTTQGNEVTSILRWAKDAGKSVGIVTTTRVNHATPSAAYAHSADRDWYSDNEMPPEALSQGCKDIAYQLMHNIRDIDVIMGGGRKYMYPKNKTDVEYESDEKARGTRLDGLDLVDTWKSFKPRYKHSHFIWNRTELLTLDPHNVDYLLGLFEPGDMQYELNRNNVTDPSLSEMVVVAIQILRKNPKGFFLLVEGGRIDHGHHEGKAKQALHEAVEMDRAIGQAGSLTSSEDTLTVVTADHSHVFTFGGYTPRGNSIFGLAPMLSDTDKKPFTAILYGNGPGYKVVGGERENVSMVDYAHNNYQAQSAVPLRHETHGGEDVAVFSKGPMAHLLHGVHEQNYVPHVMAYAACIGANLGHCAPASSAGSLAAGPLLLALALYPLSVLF
As to the kind of experiment: TNAP enzyme inhibition by screening hits, dose response, selectivity assay for mouse IAP inhibitor project, biochemical, human TNAP, uHTS hits (AID 488906). The class given is functional.

For assay [30], the target named is Beta-adrenergic receptor kinase 1 (Homo sapiens, UniProt P25098). As to the kind of experiment: aptamer displacement from bead-bound GRK2 – biochemical, cherry pick 1, bead flow cytometry, dose response (AID 504500).
In assay [31] the target is NS3 (Hepatitis C virus, UniProt A3EZJ3). Kind of assay: PubChem AID 2173. On the set-up: species or system Hepacivirus hominis.
The target in assay [32] is Intestinal-type alkaline phosphatase (Mus musculus, UniProt P24822). As to the kind of experiment: PubChem AID 488785. In kind it is functional.
For assay [33], the target named is Large T antigen (Simian virus 40, UniProt P03070). In kind it is functional, Betapolyomavirus macacae.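 Further: Confirmatory-stage PubChem screen for compounds that inhibit SV40 T antigen.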

By AC50 is commonly meant the concentration at which the activity in the assay is half-maximal. What is called EC50 is the concentration at which the effect is half-maximal.

Calls of active or inactive are those of the source.

T4 sequence (Q9P0U3 whole entry, the tested form may be a part): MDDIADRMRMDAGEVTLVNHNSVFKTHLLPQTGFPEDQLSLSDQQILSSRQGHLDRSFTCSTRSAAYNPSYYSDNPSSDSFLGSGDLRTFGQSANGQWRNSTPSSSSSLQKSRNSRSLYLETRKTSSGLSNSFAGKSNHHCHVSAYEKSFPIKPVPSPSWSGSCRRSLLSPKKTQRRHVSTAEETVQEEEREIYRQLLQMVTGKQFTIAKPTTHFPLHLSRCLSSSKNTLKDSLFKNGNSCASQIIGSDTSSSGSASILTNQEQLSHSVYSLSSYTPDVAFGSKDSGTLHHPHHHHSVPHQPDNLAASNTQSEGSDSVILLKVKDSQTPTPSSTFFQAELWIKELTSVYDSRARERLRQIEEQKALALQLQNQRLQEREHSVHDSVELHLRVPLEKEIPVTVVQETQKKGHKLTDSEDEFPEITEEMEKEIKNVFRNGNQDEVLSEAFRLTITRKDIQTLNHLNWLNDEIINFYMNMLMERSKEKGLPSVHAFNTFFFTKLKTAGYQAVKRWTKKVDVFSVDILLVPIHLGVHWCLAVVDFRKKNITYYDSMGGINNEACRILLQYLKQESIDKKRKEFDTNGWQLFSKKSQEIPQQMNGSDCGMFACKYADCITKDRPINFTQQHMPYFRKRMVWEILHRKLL
T5 sequence (P0AE70 whole entry): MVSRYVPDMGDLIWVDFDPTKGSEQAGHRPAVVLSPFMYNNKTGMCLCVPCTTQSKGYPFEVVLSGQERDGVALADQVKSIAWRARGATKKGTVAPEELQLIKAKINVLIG
Intestinal-type alkaline phosphatase (Mus musculus, UniProt P24822), sequence (P24822 whole entry): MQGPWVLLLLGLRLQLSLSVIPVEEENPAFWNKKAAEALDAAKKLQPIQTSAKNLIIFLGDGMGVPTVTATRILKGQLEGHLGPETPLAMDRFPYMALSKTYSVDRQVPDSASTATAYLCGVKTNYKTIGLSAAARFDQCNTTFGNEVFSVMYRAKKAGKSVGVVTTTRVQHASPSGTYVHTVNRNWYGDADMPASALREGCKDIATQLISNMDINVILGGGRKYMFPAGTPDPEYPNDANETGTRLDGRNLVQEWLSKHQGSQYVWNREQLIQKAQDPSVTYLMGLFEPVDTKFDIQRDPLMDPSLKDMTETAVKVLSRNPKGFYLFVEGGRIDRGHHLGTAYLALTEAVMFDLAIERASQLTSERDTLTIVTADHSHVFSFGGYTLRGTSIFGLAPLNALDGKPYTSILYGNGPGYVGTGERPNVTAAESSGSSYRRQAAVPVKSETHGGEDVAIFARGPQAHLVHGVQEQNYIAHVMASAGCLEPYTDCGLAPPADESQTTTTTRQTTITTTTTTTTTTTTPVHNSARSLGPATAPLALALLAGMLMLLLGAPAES
Genome polyprotein, sequence (P29990 2492-3391 limits assumed): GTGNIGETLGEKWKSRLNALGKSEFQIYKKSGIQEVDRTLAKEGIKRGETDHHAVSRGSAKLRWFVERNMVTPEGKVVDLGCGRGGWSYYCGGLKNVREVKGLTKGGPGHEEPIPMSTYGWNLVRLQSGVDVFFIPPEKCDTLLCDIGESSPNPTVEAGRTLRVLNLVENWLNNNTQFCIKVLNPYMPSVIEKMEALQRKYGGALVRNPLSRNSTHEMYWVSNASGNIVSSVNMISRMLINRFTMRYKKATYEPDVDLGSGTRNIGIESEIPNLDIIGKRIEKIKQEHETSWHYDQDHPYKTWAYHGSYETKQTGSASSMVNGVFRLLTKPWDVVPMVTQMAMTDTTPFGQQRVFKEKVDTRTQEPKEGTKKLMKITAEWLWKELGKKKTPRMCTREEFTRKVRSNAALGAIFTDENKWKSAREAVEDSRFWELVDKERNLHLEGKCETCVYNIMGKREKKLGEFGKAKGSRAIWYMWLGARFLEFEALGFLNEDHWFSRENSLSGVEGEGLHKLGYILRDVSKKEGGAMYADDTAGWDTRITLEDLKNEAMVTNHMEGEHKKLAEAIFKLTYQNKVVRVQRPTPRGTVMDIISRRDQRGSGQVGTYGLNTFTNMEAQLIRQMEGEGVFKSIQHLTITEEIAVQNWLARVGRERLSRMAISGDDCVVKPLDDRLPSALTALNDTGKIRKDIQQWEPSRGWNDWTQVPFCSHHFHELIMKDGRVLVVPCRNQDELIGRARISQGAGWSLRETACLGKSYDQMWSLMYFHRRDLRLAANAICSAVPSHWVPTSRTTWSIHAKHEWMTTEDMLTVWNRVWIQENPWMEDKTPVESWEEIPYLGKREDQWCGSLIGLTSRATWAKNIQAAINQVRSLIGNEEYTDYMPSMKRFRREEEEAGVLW
Phospholipase D2, sequence (O14939 whole entry, the tested form may be a part): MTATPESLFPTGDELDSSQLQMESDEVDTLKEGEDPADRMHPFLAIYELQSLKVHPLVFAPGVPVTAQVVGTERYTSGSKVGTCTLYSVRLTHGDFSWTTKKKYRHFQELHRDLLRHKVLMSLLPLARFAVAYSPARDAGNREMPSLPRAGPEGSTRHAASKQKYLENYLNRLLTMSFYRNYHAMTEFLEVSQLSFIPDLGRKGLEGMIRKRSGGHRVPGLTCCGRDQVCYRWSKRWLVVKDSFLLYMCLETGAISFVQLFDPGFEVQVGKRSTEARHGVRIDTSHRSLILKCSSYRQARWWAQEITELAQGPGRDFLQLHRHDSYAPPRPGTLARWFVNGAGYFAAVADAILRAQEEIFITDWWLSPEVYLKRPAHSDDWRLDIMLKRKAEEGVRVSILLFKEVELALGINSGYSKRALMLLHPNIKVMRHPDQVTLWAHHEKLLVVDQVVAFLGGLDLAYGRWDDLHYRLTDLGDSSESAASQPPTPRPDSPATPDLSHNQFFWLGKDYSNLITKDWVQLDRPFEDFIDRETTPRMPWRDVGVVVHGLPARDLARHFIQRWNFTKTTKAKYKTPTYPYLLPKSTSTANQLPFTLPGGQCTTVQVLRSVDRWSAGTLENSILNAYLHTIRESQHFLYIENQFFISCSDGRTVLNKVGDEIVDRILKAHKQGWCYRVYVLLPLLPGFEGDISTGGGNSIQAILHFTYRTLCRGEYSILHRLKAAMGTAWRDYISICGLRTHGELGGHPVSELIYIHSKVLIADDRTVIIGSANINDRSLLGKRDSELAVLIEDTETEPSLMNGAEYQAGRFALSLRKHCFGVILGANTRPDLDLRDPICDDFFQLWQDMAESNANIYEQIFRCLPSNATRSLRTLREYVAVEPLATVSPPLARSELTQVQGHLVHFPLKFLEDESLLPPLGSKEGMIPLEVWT
Intestinal-type alkaline phosphatase (Homo sapiens, UniProt P09923), sequence (P09923 whole entry): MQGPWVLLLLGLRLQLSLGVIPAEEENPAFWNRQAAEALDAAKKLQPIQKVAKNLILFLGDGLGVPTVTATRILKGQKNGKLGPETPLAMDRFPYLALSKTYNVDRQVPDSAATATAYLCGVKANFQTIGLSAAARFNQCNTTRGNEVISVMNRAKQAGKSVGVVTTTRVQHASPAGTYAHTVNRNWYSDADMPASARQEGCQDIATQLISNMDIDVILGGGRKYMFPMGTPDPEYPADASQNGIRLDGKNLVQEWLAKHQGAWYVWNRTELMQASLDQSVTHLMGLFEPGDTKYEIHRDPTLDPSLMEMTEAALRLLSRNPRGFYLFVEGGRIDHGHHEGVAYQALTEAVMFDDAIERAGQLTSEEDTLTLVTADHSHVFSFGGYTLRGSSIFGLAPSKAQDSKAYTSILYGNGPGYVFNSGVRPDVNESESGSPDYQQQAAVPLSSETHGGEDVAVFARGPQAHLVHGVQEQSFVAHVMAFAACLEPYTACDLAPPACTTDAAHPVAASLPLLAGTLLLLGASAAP
Beta-adrenergic receptor kinase 1, sequence (P25098 whole entry): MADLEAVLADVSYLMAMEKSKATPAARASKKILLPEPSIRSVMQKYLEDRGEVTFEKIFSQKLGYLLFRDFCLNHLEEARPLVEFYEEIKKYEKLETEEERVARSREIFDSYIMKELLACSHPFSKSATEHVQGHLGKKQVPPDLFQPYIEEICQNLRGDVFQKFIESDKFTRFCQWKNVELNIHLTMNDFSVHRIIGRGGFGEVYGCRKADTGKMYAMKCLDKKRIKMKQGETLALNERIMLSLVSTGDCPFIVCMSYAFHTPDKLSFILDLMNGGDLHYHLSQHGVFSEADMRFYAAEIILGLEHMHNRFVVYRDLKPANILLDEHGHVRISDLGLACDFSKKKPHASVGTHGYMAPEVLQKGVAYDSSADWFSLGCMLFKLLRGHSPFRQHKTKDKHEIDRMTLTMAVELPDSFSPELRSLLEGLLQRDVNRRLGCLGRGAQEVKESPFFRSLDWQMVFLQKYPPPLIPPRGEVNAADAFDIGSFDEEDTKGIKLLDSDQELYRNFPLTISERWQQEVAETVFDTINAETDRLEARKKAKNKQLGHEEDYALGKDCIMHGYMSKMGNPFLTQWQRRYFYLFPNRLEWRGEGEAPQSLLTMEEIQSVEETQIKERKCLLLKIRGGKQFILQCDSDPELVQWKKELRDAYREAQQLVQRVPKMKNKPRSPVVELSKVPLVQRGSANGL
NS3, sequence (A3EZJ3 whole entry): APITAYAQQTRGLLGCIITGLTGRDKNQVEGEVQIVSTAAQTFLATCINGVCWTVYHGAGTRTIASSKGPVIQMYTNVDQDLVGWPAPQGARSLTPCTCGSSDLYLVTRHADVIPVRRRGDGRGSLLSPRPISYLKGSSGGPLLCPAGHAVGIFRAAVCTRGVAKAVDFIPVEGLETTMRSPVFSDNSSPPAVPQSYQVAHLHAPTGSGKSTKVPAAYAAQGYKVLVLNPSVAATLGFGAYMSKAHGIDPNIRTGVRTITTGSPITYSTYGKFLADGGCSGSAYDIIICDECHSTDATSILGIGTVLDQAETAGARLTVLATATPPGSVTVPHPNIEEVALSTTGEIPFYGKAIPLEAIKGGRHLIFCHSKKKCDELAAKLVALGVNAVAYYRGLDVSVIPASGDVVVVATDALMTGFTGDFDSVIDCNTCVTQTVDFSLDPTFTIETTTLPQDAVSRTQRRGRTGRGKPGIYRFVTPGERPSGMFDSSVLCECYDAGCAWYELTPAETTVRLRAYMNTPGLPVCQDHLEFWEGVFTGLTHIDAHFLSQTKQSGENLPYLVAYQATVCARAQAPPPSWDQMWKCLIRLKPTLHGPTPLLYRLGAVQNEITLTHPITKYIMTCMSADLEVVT

Regarding `CCN(Cc1ccccc1)c1ccc(/C=N/N=C(N)N)cc1`, the half-maximal activity concentration (AC50) in [1] is 18.4 µM (active); in [2], 6.37 µM (active); in assay [3], 6.26 µM (active); in [4] it was 2.61 µM (active). Moreover, the IC50 in [5] was 39.3 µM (active); in assay [10] it was 10.9 µM (active). The CC50 is 7.93 µM (active) in assay [6], 8.36 µM (active) in assay [7], 9.2 µM (active) in assay [8] and 7.49 µM (active) in assay [9]. The values for the EC50 in [11] and in assay [12] were 3.35 µM (active) and 3.27 µM (active), respectively.

With `CC1CCc2c(C(=O)Nc3cccc(-c4nn[nH]n4)c3)csc2C1` (stereo not drawn), the 50% effective concentration (EC50) in [13] is 27.3 µM (active); in assay [14], 127 µM (active); in [15] it was > 150 µM (not active). The AC50 in assay [16] was 8.35 µM (active).

In the case of `O=C(NCCN1CCC(C(=O)NCCc2ccccn2)CC1)c1ccc2ccccc2c1`, the IC50 was 20 µM (active) in [17] and 4.2 µM (active) in [18].

Consider `O=C(CCN1C(=O)/C(=C/c2cccs2)SC1=S)NNC(=O)c1cccc(O)c1`, for which the IC50 in assay [19] was 21.9 µM (inactive); in [21], 16.2 µM (active). The EC50 in assay [20] and in [22] was > 99 µM (inactive) throughout.

For `COC(=O)c1ccc(/C=N/Nc2nc(C)c(C)s2)cc1`, the half-maximal activity concentration (AC50) in assay [23] is 69.8 µM (active).

For the molecule `Brc1cc(Br)c(Oc2cc(Br)c(Br)cc2Br)cc1Br`, the half-maximal activity concentration (AC50) in [24] was 17.8 µM (inconclusive).

Take `COc1ccc(N2C(=O)/C(=C/c3ccco3)C(=O)NC2=S)cc1`: the IC50 in assay [25] is > 100 µM (active); in assay [26] it was 46 µM (active); in assay [28] it was 22.3 µM (active); in assay [29], 32.4 µM (active); in assay [31], 4.61 µM (active); in [32] it was 16.2 µM (active). Also, the IC50 in assay [33] was 10.8 µM (active). Further, the EC50 is 5.3 µM (active) in assay [27] and 7.83 µM (active) in [30].
